Like-named read-outs stand apart in the source and are kept apart here.
What was measured:
[1] = system: Strep. faecalis ATCC 10541; assay: Antimicrobial activity, agar dilution; format: cell-based, Streptococcus faecalis; settings: Agar Dextrose dilutions, 37°C, 20 heures
Text: (§1) L'activité pharmacologique antimicrobienne de ces composés a été étudiée selon les références exposées ci-dessous.
(§2) Activité pharmacologique antimicrobienne : G.L. Daquet et Y.A. Chabbect, techniques en bactériologie, Vol. 3, Flammarion Médecine-Sciences, Paris 1972, et W.B. Hugo et A.D. Rusell, Pharmaceutical Microbiology, Blackwell Scientific Publications, London, 1977.
(§3) Milieu de culture et solvant : Agar d'antibiotiques n° 1 (Oxoid CM 327) Bouillon de triptone-soja (Oxoid CM 129) Solution Physiologique Ringer 1/4 (Oxoid BR 52) Agar Dextrose (BBL 11165)
(§4) Microorganismes : "Bacillus subtilis" ATCC 6633 "Citrobacter freundii" ATCC 112606 "Enterobacter aerogenes" ATCC 15038 "Enterobacter cloacae" ATCC 23355 "Bacillus cereus" ATCC 1178 "Escherichia coli" ATCC 10799 "Escherichia coli" ATCC 23559 "Klebsiella pneumoniae" ATCC 10031 "Proteus vulgaris" ATCC 8427 "Morg. morganii" ATCC 8019 "Pseudomonas aeruginosa" ATCC 9721 "Pseudomonas aeruginosa" ATCC 10145 "Salmonella typhimurium" ATCC 14028 "Salmonella typhimurium" ATCC 6539 "Serratia marcescens" ATCC 13880 "Shigella flexnerii" ATCC 12022 "Staphylococcusepidermis" ATCC 155-1 "Staphylococcus aureus" ATCC 25178 "Streptococcus faecalis" ATCC 10541.
(§5) Chacun des microorganismes est ensemencé par strie dans des tubes d'Agar d'antibiotiques n° 1, et mis en incubation pendant 20 heures à 37°C. Ensuite, on prend une anse de culture, on ensemence dans un bouillon de Triptone-soja et on incube pendant 20 heures à 37°C. On dilue à 1/4 la culture obtenue avec une solution physiologique Ringer, de façon à obtenir une suspension normalisée de […] pour chaque organisme.
(§6) A partir d'une solution de 100 µg/ml, chaque produit est dilué dans l'Agar Dextrose (préalablement fondu et maintenu à 50°C) par dilutions successives de façon à obtenir les concentrations suivantes : 64-32-16-8-4-2-1-0,5-0,25-0,125 µg de dérivé/ml du milieu.
(§7) Postérieurement, chaque concentration de chaque produit est répartie dans des boîtes de Petri de 10 cm de diamètre, à raison de 10 ml de milieu par boîte et autant de boîtes que de microorganismes à tester.
(§8) Une fois le milieu refroidi, les boîtes sont ensemencées avec les inoculations à raison de 0,4 ml d'inoculation par boîte. On les étend avec une anse de Driglasky et on recueille le surnageant. Les boîtes ensemencées sont incubées à 37°C pendant 20 heures.
(§9) Les résultats obtenus sont décrits dans les tableaux suivants. Les concentrations sont données en µg/ml.

[2] = system: Kleb. pneumoniae ATCC 10031; assay: Antimicrobial activity, agar dilution; format: cell-based, Klebsiella pneumoniae; settings: Agar Dextrose dilutions, 37°C, 20 heures
Text: as §1, §2, §3, §4, §5, §6, §7, §8, §9

Staph. aureus ATCC 25178 = assay: Antimicrobial activity, agar dilution; format: cell-based, Staphylococcus aureus; settings: Agar Dextrose dilutions, 37°C, 20 heures
Text: as §1, §2, §3, §4, §5, §6, §7, §8, §9

[3] = system: Citr. freundii ATCC 11606; assay: Antimicrobial activity, agar dilution; format: cell-based, Citrobacter freundii; settings: Agar Dextrose dilutions, 37°C, 20 heures
Text: as §1, §2, §3, §4, §5, §6, §7, §8, §9

[4] = system: Staph. epidermidis ATCC 155-1; assay: Antimicrobial activity, agar dilution; format: cell-based; settings: Agar Dextrose dilutions, 37°C, 20 heures
Text: as §1, §2, §3, §4, §5, §6, §7, §8, §9

[5] = system: Shigella flexnerii ATCC 12022; assay: Antimicrobial activity, agar dilution; format: cell-based; settings: ATCC12022, 20 h, Agar Dextrose dilutions, 37°C, 20 heures, read-out: Activité pharmacologique antimicrobienne (concentrations)
Text: as §1, §2, §3, §4, §5, §6, §7, §8, §9

[6] = system: Bacillus cereus ATCC 11778; assay: Antimicrobial activity, agar dilution; format: cell-based; settings: Agar Dextrose dilutions, 37°C, 20 heures
Text: as §1, §2, §3, §4, §5, §6, §7, §8, §9

Ps. aeruginosa ATCC 9721 = assay: Antimicrobial activity, agar dilution; format: cell-based; settings: Pseudomonas aeruginosa, ATCC9721, 20 h, Agar Dextrose dilutions, 37°C, 20 heures, read-out: Activité pharmacologique antimicrobienne (concentrations)
Text: as §1, §2, §3, §4, §5, §6, §7, §8, §9

[7] = system: Escherichia coli ATCC 23559; assay: Antimicrobial activity, agar dilution; format: cell-based; settings: Agar Dextrose dilutions, 37°C, 20 heures
Text: as §1, §2, §3, §4, §5, §6, §7, §8, §9

[8] = system: Escherichia coli ATCC 10799; assay: Antimicrobial activity, agar dilution; format: cell-based; settings: Agar Dextrose dilutions, 37°C, 20 heures
Text: as §1, §2, §3, §4, §5, §6, §7, §8, §9

Morg. morganii ATCC 8019 = assay: Antimicrobial activity, agar dilution; format: cell-based; settings: Agar Dextrose dilutions, 37°C, 20 heures
Text: as §1, §2, §3, §4, §5, §6, §7, §8, §9

Sal. typhi ATCC 6539 = assay: Antimicrobial activity, agar dilution; format: cell-based; settings: Salmonella enterica, 20 h, read-out: Activité pharmacologique antimicrobienne (concentrations)
Text: as §1, §2, §3, §4, §5, §6, §7, §8, §9

[9] = system: Proteus vulgaris ATCC 8427; assay: Antimicrobial activity, agar dilution; format: cell-based; settings: Agar Dextrose dilutions, 37°C, 20 heures
Text: as §1, §2, §3, §4, §5, §6, §7, §8, §9

[10] = system: Ps. aeruginosa ATCC 10145; assay: Antimicrobial activity, agar dilution; format: cell-based; settings: Pseudomonas aeruginosa, ATCC10145, 20 h, Agar Dextrose dilutions, 37°C, 20 heures, read-out: Activité pharmacologique antimicrobienne (concentrations)
Text: as §1, §2, §3, §4, §5, §6, §7, §8, §9

[11] = system: Bacillus subtilis ATCC 6633; assay: Antimicrobial activity, agar dilution; format: cell-based; settings: ATCC6633, 20 h, Agar Dextrose dilutions, 37°C, 20 heures, read-out: Activité pharmacologique antimicrobienne (concentrations)
Text: as §1, §2, §3, §4, §5, §6, §7, §8, §9

[12] = system: Serr. marcescens ATCC 13880; assay: Antimicrobial activity, agar dilution; format: cell-based, Serratia marcescens; settings: Agar Dextrose dilutions, 37°C, 20 heures
Text: as §1, §2, §3, §4, §5, §6, §7, §8, §9

[13] = system: Sal. typhimurium ATCC 14028; assay: Antimicrobial activity, agar dilution; format: cell-based, Salmonella typhimurium; settings: Agar Dextrose dilutions, 37°C, 20 heures
Text: as §1, §2, §3, §4, §5, §6, §7, §8, §9

[14] = system: Ent. aerogenes ATCC 15038; assay: Antimicrobial activity, agar dilution; format: cell-based, Enterobacter aerogenes; settings: Klebsiella aerogenes, ATCC15038, 20 h, Agar Dextrose dilutions, 37°C, 20 heures, read-out: Activité pharmacologique antimicrobienne (concentrations)
Text: as §1, §2, §3, §4, §5, §6, §7, §8, §9

[15] = Solubility in water and at pH 7.4; format: physicochemical
Text: Un grand nombre des composés de l'invention manifestent une augmentation de la solubilité dans l'eau ainsi que de la solubilité à pH 7,4 lorsqu'on compare avec les composés de référence. L'augmentation de solubilité au pH physiologique peut favoriser l'absorption du produit et la solubilité élevée dans l'eau permet l'administration du composé par voie parentérale.

Ent. cloacae ATCC 23355 = assay: Antimicrobial activity, agar dilution; format: cell-based, Enterobacter cloacae; settings: Agar Dextrose dilutions, 37°C, 20 heures
Text: as §1, §2, §3, §4, §5, §6, §7, §8, §9

C[C@H](N)C(=O)N[C@@H]1CN(c2nc3c(cc2F)c(=O)c(C(=O)O)cn3C2CC2)[C@H]1C [Exemple 4aA, chlorhydratede l'acide 7-[(2S,3R)-2-méthyl-3-Ala-amino-1-azétidinyl]-1-cyclopropyl-6-fluoro-1,4-dihydro-4-oxo-1,8-naphtyridine-3-carboxylique]
Activité pharmacologique antimicrobienne (concentrations) [1]: 8 µg/ml
Activité pharmacologique antimicrobienne (concentrations) ([1]; listed as 4aa): 1 µg/ml
Activité pharmacologique antimicrobienne (concentrations) [2]: 0,06 µg/ml
Activité pharmacologique antimicrobienne (concentrations) ([2]; listed as 4aa): 0,5 µg/ml
Activité pharmacologique antimicrobienne (concentrations) (Staph. aureus ATCC 25178): 0,25 µg/ml
MIC (Staph. aureus ATCC 25178; Staphylococcus aureus, ATCC25178, 20 h, read-out: Activité pharmacologique antimicrobienne (concentrations)): 0.5 µg/mL
Activité pharmacologique antimicrobienne (concentrations) [3]: 0,5 µg/ml
MIC ([3]; Citrobacter freundii, ATCC11606, 20 h, read-out: Activité pharmacologique antimicrobienne (concentrations)): 0.25 µg/mL
Activité pharmacologique antimicrobienne (concentrations) [4]: 1 µg/ml
MIC ([4]; Staphylococcus epidermidis, ATCC155, 20 h, read-out: Activité pharmacologique antimicrobienne (concentrations)): 0.5 µg/mL
MIC [5]: 0.12 µg/mL
Activité pharmacologique antimicrobienne (concentrations) [6]: 0,5 µg/ml
MIC ([6]; Bacillus cereus, ATCC11778, 20 h, read-out: Activité pharmacologique antimicrobienne (concentrations)): 1 µg/mL
MIC (Ps. aeruginosa ATCC 9721): 4 µg/mL
Activité pharmacologique antimicrobienne (concentrations) [7]: 0,12 µg/ml
Activité pharmacologique antimicrobienne (concentrations) ([7]; listed as 4aa): 0,25 µg/ml
Activité pharmacologique antimicrobienne (concentrations) [8]: 1 µg/ml
MIC ([8]; Escherichia coli, ATCC10799, 20 h, read-out: Activité pharmacologique antimicrobienne (concentrations)): 0.5 µg/mL
Activité pharmacologique antimicrobienne (concentrations) (Morg. morganii ATCC 8019): 0,5 µg/ml
Activité pharmacologique antimicrobienne (concentrations) (Morg. morganii ATCC 8019; listed as 4aa): 2 µg/ml
MIC (Sal. typhi ATCC 6539): 0.5 µg/mL
Activité pharmacologique antimicrobienne (concentrations) [9]: 2 µg/ml
MIC ([9]; Proteus vulgaris, ATCC8427, 20 h, read-out: Activité pharmacologique antimicrobienne (concentrations)): 1 µg/mL
MIC [10]: 8 µg/mL
MIC [11]: 0.12 µg/mL
Activité pharmacologique antimicrobienne (concentrations) [12]: 1 µg/ml
Activité pharmacologique antimicrobienne (concentrations) ([12]; listed as 4aa): 4 µg/ml
Activité pharmacologique antimicrobienne (concentrations) [13]: 1 µg/ml
MIC ([13]; Salmonella enterica, 20 h, read-out: Activité pharmacologique antimicrobienne (concentrations)): 0.5 µg/mL
MIC [14]: 0.5 µg/mL
solubility ([15]; pH 7,4, read-out: Solubilité pH 7,4): > 500 µg/mL
solubility ([15]; water, read-out: Solubilité dans l'eau): > 500 µg/mL
Activité pharmacologique antimicrobienne (concentrations) (Ent. cloacae ATCC 23355): 0,12 µg/ml
Activité pharmacologique antimicrobienne (concentrations) (Ent. cloacae ATCC 23355; listed as 4aa): 0,25 µg/ml

Source: patent EP0514268A1, “Substituted amino acid azetidinyl pyridone derivatives, their preparation and use as medicines” (LABORATORIOS DEL DR. ESTEVE, S.A., priority 1991, dated 1992)
